The values below come from paper PMC10948610, “Profiling of Petroselinum sativum (mill.) fuss phytoconstituents and assessment of their biocompatibility, antioxidant, anti-aging, wound healing, and antibacterial activities” (Frontiers in Nutrition, 2024).

Common to all, as to assay: in vitro enzyme inhibition, optical density read-out
Type in all cases: biochemical
Holding throughout (conditions): positive control; substrate, pH and temperature not given

The target in assay [1] is T1, Collagenase.
T1 construct: gene colG; usual assay enzyme is native clostridial collagenase, human MMP1 possible
The source says:
in vitro enzyme inhibition, optical density read-out on Collagenase

Assay [2] has as its target T2, Elastase.
T2 construct: gene CELA1; usual assay enzyme is native porcine pancreatic elastase, human neutrophil elastase possible
The text has this: in vitro enzyme inhibition, optical density read-out on Elastase

The target in assay [3] is T3, Hyaluronidase.
T3 construct: gene SPAM1; usual assay enzyme is native bovine testicular hyaluronidase
The text has this:
in vitro enzyme inhibition, optical density read-out on Hyaluronidase

On to `O=c1c(O)c(-c2ccc(O)c(O)c2)oc2cc(O)cc(O)c12` [Quercetin], for which, in assay [1], the “Collagenase / IC50” value came to 24.83 ± 1.8 µg/mL.
As for `O=c1cc(CO)occ1O` [Kojic acid], the “Elastase / IC50” value in assay [2] turned out to be 21.60 ± 0.9 µg/mL. Further, the “Hyaluronidase / IC50” value in assay [3] came to 14.46 ± 0.6 µg/mL.
